Measurements taken from patent US20230123334A1, “AMINO LIPID COMPOUND, PREPARATION METHOD THEREFOR, AND APPLICATION THEREOF” (SHENZHEN SHENXIN BIOTECHNOLOGY CO., LTD., priority 2020, published 2023).

Tests used:
[1] = test system: HEK293 cells; assay: Preliminary screening as DNA vectors, GFP transfection of HEK293 cells; type: cell-based; settings: HEK293 cells; lipid/DOPE liposome with 75 ng plasmid DNA (psin-EGFP-IRES-Puro); number of cells expressing GFP divided by total number of nuclei (Hoechst)
Procedure, shortened: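 Lipid + DOPE liposomes (NaOAc, pH 5.6) complexed w/ 75 ng psin-EGFP-IRES-Puro, 30 min RT; added to 3-5×10^4 HEK293/well, 37° C. Hoechst 0.2 μg/mL at 20-24 h, imaged after further 20-24 h. Efficiency = GFP+ cells / total nuclei.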

[2] = test system: HEK293 cells; assay: Preliminary screening as mRNA vectors, EGFP mRNA transfection of HEK293 cells; type: cell-based; settings: HEK293 cells, 96-well plates, EGFP mRNA 50 ng per well; percentage of GFP fluorescent cells relative to total number of cells (Hoechst)
Procedure, shortened: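 Each well of HEK293 cells received 50 ng of EGFP mRNA. Efficiency was expressed as percent GFP-expressing cells over Hoechst-defined total cell number.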

SMILES	Absolute DNA transfection efficiency in HEK293 cells [1]	Absolute mRNA transfection efficiency in HEK293 cells [2]
CCCCCCCCCCCCCCCCNc1nc(NCCCCCCC)nc(NCCCN2CCOCC2)n1 [Compound N7N16D8]	0.1%	0.0%
CCCCCCCCCCCCCCCSc1nc(NCCN2CCCCC2)nc(SCCCCCCCCCCCC)n1 [Compound S12S15D4]	3.8%	3.3%
CCCCCCCCCCCCNc1nc(NCCCCCCCCC)nc(NCCCN2CCN(C)CC2)n1 [Compound N9N12D9]	0.0%	0.1%
CCCCCCCCCCCCCCCSc1nc(NCCCN2CCOCC2)nc(SCCCCCCCCCCCCCCC)n1 [Compound S15S15D8]	0.0%	0.2%
CCCCCCCCCCCNc1nc(NCCCCCCC)nc(NCCCN2CCOCC2)n1 [Compound N7N11D8]	0.0%	0.0%
CCCCCCCCCCCCN(CCCCCCCCCCCC)c1nc(NCCCCCC)nc(NCCN2CCN(C)CC2)n1 [N6^2N12D5]	0.2%	0.0%
CCCCCCCNc1nc(NCCCCCCC)nc(NCCCN2CCN(C)CC2)n1 [Compound N7N7D9]	0.0%	0.0%
CCCCCCCCCCCCCCCCCCSc1nc(NCC2CCN(C)CC2)nc(SCCCCCCCC)n1 [Compound S8S18D10]	19.3%	59.6%
CCCCCCCCCCCCSc1nc(NCCCN2CCN(C)CC2)nc(SCCCCCCCCCCCC)n1 [Compound S12S12D9]	1.9%	1.3%
CCCCCCCCCCCCSc1nc(NCCCN2CCN(C)CC2)nc(SCCCCCCCCCC)n1 [Compound S10S12D9]	28.1%	53.7%
CCCCCCCCCSc1nc(NCCN(CC)CC)nc(SCCCCCCCCC)n1 [Compound S9S9D7]	32.6%	3.6%
CCCCCCCCCCCCCCCCSc1nc(NCCN(C)C)nc(SCCCCCCCCCCCCCCCC)n1 [Compound S16S16D1]	0.6%	0.4%
CCCCCCCCCCCCCCCCCCSc1nc(NCCN(CC)CC)nc(SCCCCCCCCCCCCCCCCCC)n1 [Compound S18S18D7]	0.2%	0.0%
CCCCCCCCCCCCCCCCSc1nc(NCCN2CCN(C)CC2)nc(SCCCCCCCCCCCCCC)n1 [Compound S14S16D5]	0.1%	0.2%
CCCCCCCCCCCCCCCCCCSc1nc(NCCN2CCOCC2)nc(SCCCCCCCCCCCCCCCCCC)n1 [Compound S18S18D2]	0.0%	0.1%
CCCCCCCCCCCCCCCNc1nc(NCCCCCCCCCCCC)nc(NCCN2CCCC2)n1 [Compound N12N15D3]	1.1%	6.5%
CCCCCCCCCCCCCCCCCCNc1nc(NCCN(C)C)nc(N(CCCCCCCCCCCC)CCCCCCCCCCCC)n1 [N18^2N12D1]	1.0%	0.4%
CCCCCCCCCCCSc1nc(NCCCN2CCOCC2)nc(SCCCCCCCCC)n1 [Compound S9S11D8]	21.8%	24.4%
CCCCCCCCCCCCN(CCCCCCCCCCCC)c1nc(NCCCCCC)nc(NCCCN(C)C)n1 [N6^2N12D6]	0.4%	0.1%
CCCCCCCCCCCCNc1nc(NCCCCCCCC)nc(NCCN2CCCC2)n1 [Compound N8N12D3]	2.4%	0.5%
CCCCCCCCCCCCNc1nc(NCCCCCCCCCCCC)nc(NCC2CCN(C)CC2)n1 [Compound N12N12D10]	0.5%	0.6%
CCCCCCCCCCCCCCCCNc1nc(NCCCCCCCCCCCC)nc(NCCN2CCN(C)CC2)n1 [Compound N12N16D5]	0.1%	1.4%
CCCCCCCCCCCCNc1nc(NCCCN2CCOCC2)nc(N(CCCCCCCCCCCC)CCCCCCCCCCCC)n1 [N12^2N12D8]	0.6%	3.2%
CCCCCCCCCCCCCCCCSc1nc(NCCN2CCOCC2)nc(SCCCCCCCCCCCCCCC)n1 [Compound S15S16D2]	0.0%	0.7%

SMILES	Absolute DNA transfection efficiency in HEK293 cells [1]	Absolute mRNA transfection efficiency in HEK293 cells [2]
CCCCCCCCCCCCCCSc1nc(NCCN(C)C)nc(SCCCCCCCCCC)n1 [Compound S10S14D1]	8.5%	0.1%
CCCCCCCCCCCNc1nc(NCCCCCCCCC)nc(NCCN(C)C)n1 [Compound N9N11D1]	0.0%	2.2%
CCCCCCCCCCCCCCCCNc1nc(NCCCCCCCCCCCCCCCC)nc(NCCN2CCCCC2)n1 [Compound N16N16D4]	0.9%	0.0%
CCCCCCCCCCCCCCCCCCSc1nc(NCCN(CC)CC)nc(SCCCCCCCCCCCCCC)n1 [Compound S14S18D7]	0.9%	2.7%
CCCCCCCCCCCCCNc1nc(NCCCCCCC)nc(NCCN2CCOCC2)n1 [Compound N7N13D2]	0.1%	0.0%
CCCCCCCCCCCCCCCCNc1nc(NCCCCCCCCCCC)nc(NCCN2CCN(C)CC2)n1 [Compound N11N16D5]	0.0%	2.5%
CCCCCCCCCCCCCNc1nc(NCCCN(C)C)nc(N(CCCCCCCCCCCC)CCCCCCCCCCCC)n1 [N13^2N12D6]	1.3%	3.9%
CCCCCCCCCCCCCCCCSc1nc(NCCN(C)C)nc(SCCCCCCCCCCCCCC)n1 [Compound S14S16D1]	0.0%	0.0%
CCCCCCCCCCCCCCCCSc1nc(NCCN2CCCCC2)nc(SCCCCCCCCCCCCCCCC)n1 [Compound S16S16D4]	1.2%	2.2%
CCCCCCCCCCCCCCCCNc1nc(NCCCCCCCC)nc(NCCN2CCN(C)CC2)n1 [Compound N8N16D5]	0.2%	0.3%
CCCCCCCCCCCCCCCCCCSc1nc(NCC2CCN(C)CC2)nc(SCCCCCCCCCC)n1 [Compound S10S18D10]	43.1%	54.6%
CCCCCCCCCCCCCCCNc1nc(NCCCCCCCCCCCCC)nc(NCC2CCN(C)CC2)n1 [Compound N13N15D10]	0.0%	0.4%
CCCCCCCCCCCCCCCCNc1nc(NCCCCCCCC)nc(NCCN2CCOCC2)n1 [Compound N8N16D2]	0.8%	0.2%
CCCCCCCCCCCCCCCNc1nc(NCCN2CCN(C)CC2)nc(N(CCCCCCCCCCCC)CCCCCCCCCCCC)n1 [N15^2N12D5]	2.8%	3.7%
CCCCCCCCCCCCCCCCCCNc1nc(NCCCCCCCCCCC)nc(NCCN2CCCC2)n1 [Compound N11N18D3]	0.6%	2.8%
CCCCCCCCCCCCCCCCCCSc1nc(NCCN2CCOCC2)nc(SCCCCCCCCC)n1 [Compound S9S18D2]	2.3%	0.0%
CCCCCCCCCCCCCCCCCCSc1nc(NCCN2CCOCC2)nc(SCCCCCCCCCCCCCC)n1 [Compound S14S18D2]	0.2%	0.0%
CCCCCCCCCCCCCCCCCCNc1nc(NCCCCCCCCCCCC)nc(NCCCN2CCN(C)CC2)n1 [Compound N12N18D9]	0.1%	0.7%
CCCCCCCCCCCCCNc1nc(NCCCCCCCCCCCCC)nc(NCCN2CCN(C)CC2)n1 [Compound N13N13D5]	0.9%	1.7%
CCCCCCCCCCCCCCSc1nc(NCCN2CCOCC2)nc(SCCCCCCCCCCCC)n1 [Compound S12S14D2]	0.1%	0.2%
CCCCCCCCCCCCCCCCNc1nc(NCCCCCCCCCCCC)nc(NCCN(C)C)n1 [Compound N12N16D1]	2.6%	4.4%
CCCCCCCCCCCCCCCCCCNc1nc(NCCCCCCCCC)nc(NCCCN2CCOCC2)n1 [Compound N9N18D8]	1.4%	0.3%
CCCCCCCCCCCNc1nc(NCCCCCC)nc(NCCCN(C)C)n1 [Compound N6N11D6]	0.2%	0.0%
